This note sets out measurements from the Kinase Knowledgebase extract (Sharma et al. 2016).

Values joined by “and” are separate entries in the source; they are usually repeats but may differ in a detail not shown here. Identical values can stand only once. Where only a bound is given, the exact number is not on record here.

The target of the first experiment is PIK3CD (Human) (UniProt O00329). Nature of the experiment: Inhibition of PIK3CD Kinase Activity in Pfeiffer Cells.
PIK3CD (Human), sequence (O00329 whole entry, looked up): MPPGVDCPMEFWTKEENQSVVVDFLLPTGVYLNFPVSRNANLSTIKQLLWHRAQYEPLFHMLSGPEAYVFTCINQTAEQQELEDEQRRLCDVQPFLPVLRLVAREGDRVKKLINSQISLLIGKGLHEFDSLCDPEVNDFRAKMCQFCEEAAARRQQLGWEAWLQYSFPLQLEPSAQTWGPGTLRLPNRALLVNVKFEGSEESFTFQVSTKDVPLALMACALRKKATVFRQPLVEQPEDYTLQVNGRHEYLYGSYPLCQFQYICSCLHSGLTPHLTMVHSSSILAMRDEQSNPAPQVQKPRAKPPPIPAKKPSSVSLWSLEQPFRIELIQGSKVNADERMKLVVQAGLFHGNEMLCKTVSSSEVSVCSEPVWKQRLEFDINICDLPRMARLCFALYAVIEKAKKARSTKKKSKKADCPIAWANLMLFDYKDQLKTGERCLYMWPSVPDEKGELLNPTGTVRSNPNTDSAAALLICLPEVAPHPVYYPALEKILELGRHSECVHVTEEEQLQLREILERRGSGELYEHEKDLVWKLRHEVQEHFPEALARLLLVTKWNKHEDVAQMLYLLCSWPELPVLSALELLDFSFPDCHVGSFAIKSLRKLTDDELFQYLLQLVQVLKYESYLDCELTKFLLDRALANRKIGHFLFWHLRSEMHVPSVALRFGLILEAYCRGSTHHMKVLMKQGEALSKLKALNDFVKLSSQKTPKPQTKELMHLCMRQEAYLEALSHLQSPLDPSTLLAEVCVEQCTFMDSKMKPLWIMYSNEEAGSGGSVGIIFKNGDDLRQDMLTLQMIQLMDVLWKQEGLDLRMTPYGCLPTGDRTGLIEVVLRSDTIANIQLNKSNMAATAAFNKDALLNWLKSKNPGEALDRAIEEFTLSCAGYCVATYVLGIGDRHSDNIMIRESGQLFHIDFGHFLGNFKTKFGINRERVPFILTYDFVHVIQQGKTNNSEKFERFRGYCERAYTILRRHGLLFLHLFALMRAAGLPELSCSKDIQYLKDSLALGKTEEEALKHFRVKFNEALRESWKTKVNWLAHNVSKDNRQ
Take `Cc1csc2nc(C(C)Nc3nc(F)nc4[nH]cnc34)c(-c3cc(F)cc(F)c3)c(=O)n12` (configuration not stated): the concentration for half-maximal inhibition (IC50) is 50 to 100 nM.

Compound `Cc1cccc2nc(C(C)Nc3ncnc4[nH]cnc34)c(-c3ccc(F)c(F)c3)c(=O)n12` (configuration not stated) showed a 50% inhibitory concentration (IC50) of 500 to 1000 nM.

`Cc1csc2nc(C(C)Nc3nc(N)nc4[nH]cnc34)c(-c3cc(F)cc(F)c3)c(=O)n12` (configuration not stated) gave an IC50 of under 50 nM.

In turn, `CCc1cccc2nc(C(C)Nc3ncnc4[nH]cnc34)c(-c3ccc(F)cc3)c(=O)n12` (configuration not stated) displayed a concentration for half-maximal inhibition (IC50) of 100 to 500 nM.

The compound `Cc1csc2nc(C(C)Nc3ncnc4[nH]cnc34)c(-c3cccc(Cl)c3)c(=O)n12` (configuration not stated) yielded an IC50 of 50 to 100 nM.

Regarding `Cc1cccc(-c2c(C(C)Nc3nc(N)nc4[nH]cnc34)nc3cccc(C)n3c2=O)c1` (configuration not stated), the IC50 lay within 50 to 100 nM.

On to `CCc1cccc2nc(C(C)Nc3nc(N)nc4[nH]cnc34)c(-c3cc(F)cc(F)c3)c(=O)n12` (configuration not stated), for which the IC50 is under 50 nM.

As for `Cc1csc2nc(C(C)Nc3ncnc4[nH]cnc34)c(-c3cc(F)ccc3F)c(=O)n12` (configuration not stated), the concentration for half-maximal inhibition (IC50) lay within 50 to 100 nM.

As for `Cc1cccc2nc(C(C)Nc3nc(N)nc4[nH]cnc34)c(-c3ccc(C#N)cc3)c(=O)n12` (configuration not stated), the half-maximal inhibitory concentration (IC50) is 500 to 1000 nM.

Turning to `Cc1csc2nc(C(C)Nc3ncnc4[nH]cnc34)c(-c3nccs3)c(=O)n12` (configuration not stated), the half-maximal inhibitory concentration (IC50) fell in the range of 50 to 100 nM.

`Cc1cccc2nc(C(C)Nc3nc(N)nc4[nH]cnc34)c(-c3cccc(Cl)c3)c(=O)n12` (configuration not stated) registered a concentration for half-maximal inhibition (IC50) of 50 to 100 nM.

In turn, `Cc1cccc2nc(C(C)Nc3ncnc4[nH]cnc34)c(-c3ccccc3Cl)c(=O)n12` (configuration not stated) yielded an IC50 of 50 to 100 nM.

On to `Cc1csc2nc(C(C)Nc3ncnc4[nH]cnc34)c(-c3cscn3)c(=O)n12` (configuration not stated), for which the concentration for half-maximal inhibition (IC50) was 50 to 100 nM.

In turn, `Cc1csc2nc(C(C)Nc3ncnc4[nH]cnc34)c(-c3ccccc3F)c(=O)n12` (configuration not stated) showed an IC50 of 50 to 100 nM.

`Cc1csc2nc(C(C)Nc3nc(N)nc4[nH]cnc34)c(-c3cc(F)cc(Cl)c3)c(=O)n12` (configuration not stated): the IC50 is under 50 nM.

For `Cc1csc2nc(C(C)Nc3ncnc4[nH]cnc34)c(-c3cc(F)cc(Cl)c3)c(=O)n12` (configuration not stated), the half-inhibitory concentration (IC50) was 50 to 100 nM.

In turn, `CCC(Nc1ncnc2[nH]cnc12)c1nc2cccc(C)n2c(=O)c1-c1cn[nH]c1` (configuration not stated) yielded a half-maximal inhibitory concentration (IC50) of 500 to 1000 nM.

Take `Cc1cccc2nc(C(C)Nc3ncnc4[nH]cnc34)c(-c3cccc(Cl)c3)c(=O)n12` (configuration not stated): the IC50 lay in the range of 50 to 100 nM.

For `Cc1csc2nc(C(C)Nc3ncnc4[nH]cnc34)c(-c3cc(F)cc(F)c3)c(=O)n12` (configuration not stated), the half-maximal inhibitory concentration (IC50) was 100 to 500 nM.

For `Cc1cccc2nc(C(C)Nc3ncnc4[nH]cnc34)c(-c3cc(F)ccc3F)c(=O)n12` (configuration not stated), the IC50 lay in the range of 50 to 100 nM.

The compound `Cc1csc2nc(C(C)Nc3nc(N)nc4[nH]cnc34)c(-c3cccc(Cl)c3)c(=O)n12` (configuration not stated) had a concentration for half-maximal inhibition (IC50) of under 50 nM.

Regarding `Cc1cccc2nc(C(C)Nc3nc(N)nc4[nH]cnc34)c(-c3ccccc3F)c(=O)n12` (configuration not stated), the 50% inhibitory concentration (IC50) was 50 to 100 nM.

As for `Cc1cccc2nc(C(C)Nc3nc(N)nc4[nH]cnc34)c(-c3cccc(C#N)c3)c(=O)n12` (configuration not stated), the half-inhibitory concentration (IC50) is 100 to 500 nM.

`Cc1cccc2nc(C(C)Nc3ncnc4[nH]cnc34)c(-c3ccccc3)c(=O)n12` (configuration not stated) yielded an IC50 of 50 to 100 nM.

Take `Cc1ccc(-c2c(C(C)Nc3ncnc4[nH]cnc34)nc3cccc(C)n3c2=O)cc1` (configuration not stated): the concentration for half-maximal inhibition (IC50) was 50 to 100 nM.

The compound `CCC(Nc1ncnc2[nH]cnc12)c1nc2cccc(C)n2c(=O)c1-c1cccc(F)c1` (configuration not stated) yielded an IC50 of 100 to 500 nM.

Consider `COc1cccc(-c2c(C(C)Nc3ncnc4[nH]cnc34)nc3cccc(C)n3c2=O)c1` (configuration not stated), for which the IC50 lay within 50 to 100 nM.

`Cc1cccc2nc(C(C)Nc3ncnc4[nH]cnc34)c(-c3cc(F)cc(F)c3)c(=O)n12` (configuration not stated): the 50% inhibitory concentration (IC50) was 50 to 100 nM.

As to `Cc1csc2nc(C(C)Nc3ncnc4[nH]cnc34)c(-c3ccc(F)cc3)c(=O)n12` (configuration not stated), the 50% inhibitory concentration (IC50) was 100 to 500 nM.

The compound `Cc1cccc2nc(C(C)Nc3ncnc4[nH]cnc34)c(-c3cccc(F)c3F)c(=O)n12` (configuration not stated) registered an IC50 of 100 to 500 nM.

Consider `Cc1csc2nc(C(C)Nc3ncnc4[nH]cnc34)c(-c3ccccc3Cl)c(=O)n12` (configuration not stated), for which the half-inhibitory concentration (IC50) is 100 to 500 nM and < 50 nM.

For the compound `Cc1cccc2nc(C(C)Nc3ncnc4[nH]cnc34)c(-c3ccccc3F)c(=O)n12` (configuration not stated), the 50% inhibitory concentration (IC50) fell in the range of 100 to 500 nM.

As to `Cc1csc2nc(C(C)Nc3nc(N)nc4[nH]cnc34)c(-c3ccccc3Cl)c(=O)n12` (configuration not stated), the IC50 is < 50 nM and 100 to 500 nM.

Another experiment shares this target. Nature of the experiment: Inhibition of PIK3CD Kinase Activity (Scintillation Proximity Assay). Background: SPA uses beads or plates that emit light when radiolabelled molecules are held near them.
For `Cc1csc2nc(C(C)Nc3nc(N)nc4[nH]cnc34)c(-c3cc(F)cc(F)c3)c(=O)n12` (configuration not stated), the half-maximal inhibitory concentration (IC50) was under 50 nM.

Turning to `Cc1csc2nc(C(C)Nc3ncnc4[nH]cnc34)c(-c3ccccc3)c(=O)n12` (configuration not stated), the IC50 was under 50 nM.

`Cc1csc2nc(C(C)Nc3ncnc4[nH]cnc34)c(-c3cncc(F)c3)c(=O)n12` (configuration not stated) registered an IC50 of 100 to 500 nM.

Compound `Cc1csc2nc(C(C)Nc3nc(N)nc4[nH]cnc34)c(-c3cncc(F)c3)c(=O)n12` (configuration not stated) gave a 50% inhibitory concentration (IC50) of 50 to 100 nM.

In turn, `Cc1cccc2nc(C(C)Nc3nc(N)nc4[nH]cnc34)c(-c3cccc(F)c3)c(=O)n12` (configuration not stated) gave an IC50 of under 50 nM.

`Cc1ccc(-c2c(C(C)Nc3ncnc4[nH]cnc34)nc3scc(C)n3c2=O)cc1` (configuration not stated) had an IC50 of 100 to 500 nM.

In turn, `CC(Nc1nc(N)nc2[nH]cnc12)c1nc2ccccn2c(=O)c1-c1cc(F)cc(F)c1` (configuration not stated) had an IC50 of 100 to 500 nM.

Take `CC(Nc1nc(N)nc2[nH]cnc12)c1nc2sccn2c(=O)c1-c1ccccc1` (configuration not stated): the IC50 lay within 100 to 500 nM.

`Cc1csc2nc(C(C)Nc3nc(N)nc4[nH]cnc34)c(-c3cccc(F)c3F)c(=O)n12` (configuration not stated): the half-maximal inhibitory concentration (IC50) is under 50 nM.

In the case of `Cc1csc2nc(C(C)Nc3nc(N)nc4[nH]cnc34)c(-c3ccccc3F)c(=O)n12` (configuration not stated), the IC50 was under 50 nM.

In the case of `Cc1cccc(-c2c(C(C)Nc3ncnc4[nH]cnc34)nc3cccc(C)n3c2=O)c1` (configuration not stated), the half-inhibitory concentration (IC50) was 100 to 500 nM.

In the case of `Cc1cccc2nc(C(C)Nc3nc(N)nc4[nH]cnc34)c(-c3ccccc3)c(=O)n12` (configuration not stated), the IC50 was under 50 nM.

In the case of `Cc1csc2nc(C(C)Nc3ncnc4[nH]cnc34)c(-c3cc(F)cc(F)c3)c(=O)n12` (configuration not stated), the 50% inhibitory concentration (IC50) was under 50 nM.

`Cc1csc2nc(C(C)Nc3ncnc4[nH]cnc34)c(-c3cccc(F)c3F)c(=O)n12` (configuration not stated) yielded a half-maximal inhibitory concentration (IC50) of 50 to 100 nM.

`Cc1cccc2nc(C(C)Nc3ncnc4[nH]cnc34)c(-c3cccc(F)c3)c(=O)n12` (configuration not stated): the IC50 was under 50 nM.

Regarding `CCc1cccc2nc(C(C)Nc3ncnc4[nH]cnc34)c(-c3cc(F)cc(F)c3)c(=O)n12` (configuration not stated), the IC50 was 100 to 500 nM.

As for `Cc1cccc2nc(C(C)Nc3ncnc4[nH]cnc34)c(-c3cccc(C#N)c3)c(=O)n12` (configuration not stated), the IC50 fell in the range of 100 to 500 nM.

For the compound `Cc1cccc2nc(C(C)Nc3nc(N)nc4[nH]cnc34)c(-c3ccccc3Cl)c(=O)n12` (configuration not stated), the IC50 was under 50 nM.

For `Cc1csc2nc(C(C)Nc3ncnc4[nH]ccc34)c(-c3cc(F)cc(F)c3)c(=O)n12` (configuration not stated), the half-maximal inhibitory concentration (IC50) is 100 to 500 nM.

For `Cc1ccccc1-c1c(C(C)Nc2ncnc3[nH]cnc23)nc2cccc(C)n2c1=O` (configuration not stated), the 50% inhibitory concentration (IC50) fell in the range of 100 to 500 nM.

Compound `CCC(Nc1ncnc2[nH]cnc12)c1nc2cccc(C)n2c(=O)c1-c1cc(F)cc(F)c1` (configuration not stated) had an IC50 of 50 to 100 nM.

As to `Cc1csc2nc(C(C)Nc3ncnc4[nH]cnc34)c(-c3ccccc3Cl)c(=O)n12` (configuration not stated), the concentration for half-maximal inhibition (IC50) is 100 to 500 nM and < 50 nM.

`CCC(Nc1ncnc2[nH]cnc12)c1nc2cccc(C)n2c(=O)c1-c1ccccc1` (configuration not stated) gave a half-inhibitory concentration (IC50) of under 50 nM.

Take `Cc1csc2nc(C(C)Nc3nc(N)nc4[nH]cnc34)c(-c3ccccc3Cl)c(=O)n12` (configuration not stated): the IC50 was 100 to 500 nM and < 50 nM.

As for `CC(Nc1ncnc2[nH]cnc12)c1nc2scc(C(F)(F)F)n2c(=O)c1-c1cccc(F)c1` (configuration not stated), the IC50 is 50 to 100 nM.

For the next experiment the target is unchanged. The experiment can be described thus: Inhibition of PIK3CD Kinase Activity (AlphaScreen Assay).
In turn, `Cc1csc2nc(C(C)Nc3nc(N)nc4[nH]cnc34)c(-c3cc(F)cc(F)c3)c(=O)n12` (configuration not stated) gave an IC50 of under 50 nM.

`Cc1csc2nc(C(C)Nc3ncnc4[nH]cnc34)c(-c3cc(F)cc(F)c3)c(=O)n12` (configuration not stated) returned an IC50 of under 50 nM.

`Cc1csc2nc(C(C)Nc3nc(N)nc4[nH]cnc34)c(-c3cccc(F)c3)c(=O)n12` (configuration not stated) returned an IC50 of under 50 nM.

`Cc1csc2nc(C(C)Nc3nc(N)nc4[nH]cnc34)c(-c3ccccc3)c(=O)n12` (configuration not stated) gave an IC50 of under 50 nM.

`Cc1csc2nc(C(C)Nc3ncnc4[nH]cnc34)c(-c3ccccn3)c(=O)n12` (configuration not stated) gave an IC50 of 50 to 100 nM.

Compound `CCC(Nc1ncnc2[nH]cnc12)c1nc2cccc(C)n2c(=O)c1-c1cccnc1F` (configuration not stated) returned an IC50 of 100 to 500 nM.

Consider `CCC(Nc1ncnc2[nH]cnc12)c1nc2cccc(C)n2c(=O)c1-c1cncc(F)c1` (configuration not stated), for which the IC50 lay within 100 to 500 nM.

`Cc1cccc2nc(C(C)n3cnc4c(N)ncnc43)c(-c3ccccc3)c(=O)n12` (configuration not stated) came in with a concentration for half-maximal inhibition (IC50) of 100 to 500 nM.

A further experiment has the same target. The experiment can be described thus: Inhibition of PIK3CD Kinase Activity.
As to `Cc1csc2nc(C(C)Nc3ncnc4[nH]cnc34)c(-c3cc(F)cc(F)c3)c(=O)n12` (configuration not stated), the half-inhibitory concentration (IC50) was under 50 nM.

A word on the IC50: it is the point on the concentration scale where inhibition reaches its midpoint. High values mean lower potency, low ones higher potency.
